Calls of active or inactive are those of the source. The calls are words filed in the database; no cut-off is given here.
Tests used:
SGC-7901 = experiment: Antiproliferative activity against human SGC-7901 cells assessed as reduction in cell viability incubated for 24 hrs by CCK-8 assay; format: functional, cell-based; conditions: SGC-7901, 24 h
LoVo = experiment: Antiproliferative activity against human LoVo cells assessed as reduction in cell viability incubated for 24 hrs by CCK-8 assay; format: functional, cell-based
A549 = experiment: Antiproliferative activity against human A549 cells assessed as reduction in cell viability incubated for 24 hrs by CCK-8 assay; format: functional, cell-based; conditions: A549, 24 h
[1] = Antiproliferative activity against human […] cells assessed as reduction in cell viability incubated for 24 hrs by CCK-8 assay; format: functional, cell-based
HepG2 = experiment: Antiproliferative activity against human HepG2 cells assessed as reduction in cell viability incubated for 24 hrs by CCK-8 assay; format: functional, cell-based; conditions: HepG2, 24 h
MDA-MB-231 = experiment: Antiproliferative activity against human MDA-MB-231 cells assessed as reduction in cell viability incubated for 24 hrs by CCK-8 assay; format: functional, cell-based; conditions: MDA-MB-231, 24 h
NCI-H460 [2] = experiment: Antiproliferative activity against human NCI-H460 cells assessed as reduction in cell viability incubated for 24 hrs by CCK-8 assay; format: functional, cell-based; conditions: NCI-H460, 24 h
AGS = experiment: Antiproliferative activity against human AGS cells assessed as reduction in cell viability incubated for 24 hrs by CCK-8 assay; format: functional, cell-based
L02 = experiment: Cytotoxicity against human L02 cells assessed as reduction in cell viability incubated for 8 hrs by CCK-8 assay; format: toxicity, cell-based; conditions: l02, 8 h
HONE1 cell line = experiment: Antiproliferative activity against human HONE1 cell line assessed as reduction in cell viability incubated for 24 hrs by CCK-8 assay; format: functional, cell-based; conditions: HONE1, 24 h
NCI-H1299 = experiment: Antiproliferative activity against human NCI-H1299 cells assessed as reduction in cell viability incubated for 24 hrs by CCK-8 assay; format: functional, cell-based; conditions: NCI-H1299, 24 h
NCI-H460 [3] = experiment: Cytotoxicity against human NCI-H460 cells assessed as reduction in cell viability at 10 uM incubated for 8 hr by CCK-8 assay; format: functional, cell-based
OVCAR-3 = experiment: Antiproliferative activity against human OVCAR-3 cells assessed as reduction in cell viability incubated for 24 hrs by CCK-8 assay; format: functional, cell-based; conditions: OVCAR-3, 24 h
MCF7 = experiment: Antiproliferative activity against human MCF7 cells assessed as reduction in cell viability incubated for 24 hrs by CCK-8 assay; format: functional, cell-based; conditions: MCF7, 24 h
U-251 = experiment: Antiproliferative activity against human U-251 cells assessed as reduction in cell viability incubated for 24 hrs by CCK-8 assay; format: functional, cell-based; conditions: U-251, 24 h
[4] = Antiproliferative activity against human NCI-H1688 cells assessed as reduction in cell viability incubated for 24 hrs by CCK-8 assay; format: functional, cell-based; conditions: NCI-H1688, 24 h
SW480 = experiment: Antiproliferative activity against human SW480 cells assessed as reduction in cell viability incubated for 24 hrs by CCK-8 assay; format: functional, cell-based; conditions: SW480, 24 h
NCI-H1650 = experiment: Antiproliferative activity against human NCI-H1650 cells assessed as reduction in cell viability incubated for 24 hrs by CCK-8 assay; format: functional, cell-based; conditions: NCI-H1650, 24 h

IC50 (SGC-7901) [µM] | IC50 (LoVo) [µM] | IC50 (A549) [µM] | IC50 (HepG2) [µM] | IC50 (MDA-MB-231) [µM] | IC50 (NCI-H460 [2]) [µM] | IC50 (AGS) [µM] | IC50 (NCI-H1299) [µM] | IC50 (OVCAR-3) [µM] | IC50 (MCF7) [µM] | IC50 (U-251) [µM] | IC50 (SW480) [µM] | IC50 (NCI-H1650) [µM] | Structure (SMILES) | IC50 [1] [µM] | Activity (L02) | IC50 (HONE1 cell line) [µM] | Activity (NCI-H460 [3]) | IC50 [4] [µM]
> 45 | > 45 | > 45 | > 45 | > 45 | > 45 | > 45 | > 45 | > 45 | > 45 | > 45 | > 45 | > 45 | C=CCc1ccc(O)c(-c2cc(CC=C)ccc2O)c1 [MAGNOLOL] | > 45 | Non-Toxic | > 45 | inactive | > 45
– | – | – | – | – | – | – | – | – | – | – | – | – | C=CCc1ccc(O)c(-c2cc(CC=C)ccc2OCCSCCCCN=C=S)c1 | – | Non-Toxic | – | inactive | –
– | – | – | – | – | – | – | – | – | – | – | – | – | C=CCc1ccc(O)c(-c2cc(CC=C)ccc2OCCS(=O)(=O)CCCCN=C=S)c1 | – | Non-Toxic | – | inactive | –
